# Laboratory results reported in patent US9913831B2, “Methods and compositions for treating nephrogenic diabetes insipidus” (UNIVERSITY OF UTAH RESEARCH FOUNDATION, priority 2011, dated 2018).
# How the values were obtained:
# [1] = rats, lithium diet with clopidogrel vs lithium alone, ICPMS
# Procedure: Microhematocrit was determined by centrifuging free-flowing blood collected in heparinized capillary tubes in a microhematocrit centrifuge (Clay Adams, Parsippany, N.J., USA). Urinary excretion of AVP was quantified by a commercial ELISA kit (Enzo Life Sciences, Farmingdale, N.Y., USA). […] Based on serum and urine analysis, electrolyte-free clearance [CH20(e)] was computed using the formula CH20(e)=V((1−UNa+UK)/PNa), where V=urine volume, UNa and UK are urine Na and K, and PNa is plasma Na, respectively (Schrier 2006). Lithium levels in inner medullary tissue homogenates were assayed by Inductively Coupled Plasma-Mass Spectrometry (ICPMS) by Exova (Santa Fe Springs, Calif., USA), and were normalized to their respective protein contents.
# [2] = system: lithium-treated rats; assay: Effect of clopidogrel on lithium-induced alterations in rats (natriuresis, urinary nitrates/nitrites, hematocrit, body and kidney weight); settings: rats, 2 weeks
# Procedure: Animal experiments: Male Sprague-Dawley rats were purchased from Charles River (Wilmington, Mass., USA), and Brattleboro mutant rats that lack AVP (HsdBlu:BRAT-Avp^di) were obtained from the Rat Resource & Research Center (RRRC), University of Missouri, Columbia, Mo., USA. Mice (B6D2 genetic background) were bred in-house. […] Lithium-added chow (40 mmol Li/kg chow) was custom prepared (MP Biomedicals, Aurora, Ohio, USA). Clopidogrel bisulfate was administered orally by powdering and dissolving Plavix® tablets (Bristol-Myers Squibb, New York, N.Y., USA) in drinking water. The concentration of the drug in the drinking water was adjusted daily based on the water consumption of the animals the previous day. The clopidogrel dose used in Sprague-Dawley rats (20 mg/kg bw/day) was the same as used by other investigators (de La Crux et al, 2003; Graciano et al, 2008). In mice, clopidogrel was administered at a dose of 80 mg/kg bw/day. When compared with the human clinical dose of Plavix®, and adjusted to the Km factor (ratio of body surface area to body weight) of the species (man vs. rat or mouse) (Reagan-Shaw et al, 2007), the doses used in rats or mice were 2.5- and 5-fold higher, respectively. […] A higher dose of clopidogrel (40 mg/kg bw/day) was used in Brattleboro rats to ensure an unequivocal outcome whether positive or negative. Twenty-four hour urine samples were collected by placing the animals in the appropriate metabolic cages designed for rats and mice. Blood and kidney tissues were collected at necropsy. Cortical, outer and inner medullary regions of the kidneys were dissected out and processed for laboratory assays.
# Blood, urine and tissue analysis: Osmolalities of clear urine samples were measured by vapor pressure method (Wescor, Logan, Utah, USA). Microhematocrit was determined by centrifuging free-flowing blood collected in heparinized capillary tubes in a microhematocrit centrifuge (Clay Adams, Parsippany, N.J., USA). Urinary excretion of AVP was quantified by a commercial ELISA kit (Enzo Life Sciences, Farmingdale, N.Y., USA). Total nitrate/nitrite contents of urine samples were determined by a commercial kit (Cayman Chemical, Ann Arbor, Mich.).Na, Li and K levels in serum and/or urine were determined on EasyElectrolyte® (Medica Corp., Bedford, Mass., USA). Based on serum and urine analysis, electrolyte-free clearance [CH20(e)] was computed using the formula CH20(e)=V((1−UNa+UK)/PNa), where V=urine volume, UNa and UK are urine Na and K, and PNa is plasma Na, respectively (Schrier 2006). Lithium levels in inner medullary tissue homogenates were assayed by Inductively Coupled Plasma-Mass Spectrometry (ICPMS) by Exova (Santa Fe Springs, Calif., USA), and were normalized to their respective protein contents.
# Statistical Analysis: All quantitative data are expressed as mean±standard error (SE). Comparisons among the means of multiple groups were made by one-way analysis of variance (ANOVA), followed by the assessment of statistical significance by Tukey-Kramer Multiple Comparison Test or Student-Newman-Keuls Multiple Comparison Test. Differences between the means of two groups were determined by unpaired t test or where applicable, by Mann-Whitney nonparametric test. P values less than 0.05 were considered significant. GraphPad Instat® (GraphPad Software, Inc., La Jolla, Calif.) was used for statistical analysis.
# [3] = system: ADP-activated P2Y12 receptor
# [4] = lithium + clopidogrel (40 mg/kg bw/day per FIG. 11 legend)
# [5] = lithium + clopidogrel (40 mg/kg bw/day per FIG. 12 legend)
structure (smiles),measurement,setting,value
COC(=O)[C@H](c1ccccc1Cl)N1CCc2sccc2C1 [clopidogrel],accumulation of lithium in the inner medulla,[1],no effect
same,lithium-induced increase in urinary NO3/NO2 (total nitrates/nitrites excretion),[2]; [4],significantly ameliorated
same,lithium-induced natriuresis (urinary sodium excretion),[2]; [4],modest effect
same,lithium-induced increase in terminal hematocrit,[2]; [5],reversed
same,low gain in body weight due to lithium-treatment,[2]; [5],did not ameliorate
same,development of AVP-resistant polyuria,[3]; lithium-treated rodents,blocked the development
same,AVP in the urine (surrogate for plasma AVP levels),[3]; rodents,increased
same,aquaporin-2 (AQP2) water channel protein in the kidney,[3]; rodents,increased
same,urinary concentration,[3]; rodents,significantly increased
